Reference: patent publication US9371330B2, “Substituted pyrazino[1,2-a]pyrimidines useful as CBP/catenin antagonists for enhancing asymmetric division of somatic stem cells” (University of Southern California, priority 2011, dated 2016)
“Also recorded” adds a separate entry of the source.

Key:
[1] = system: cerebral deposition of Aβ; assay: Aβ deposition in penta-transgenic mouse model of Alzheimer's disease; format: in vivo; settings: 50 mg/kg/day, 2 months, immunohistochemistry, vs saline
Description: Applicant utilized a penta-transgenic mouse model of AD, which normally develops massive cerebral deposition of Aβ starting at 6 weeks of age. These mice were treated with either (A) ICG-001 (50 mg/kg/day) or (B) saline for 2 months. […] However, the effects of PS-1 mutations on the stability of beta-catenin, TCF/beta-catenin signaling, and thereby its potential role in AD remain controversial. […] In the CNS, EpB2 expression is associated with axonal guidance (16). […] In initial in vivo studies, applicant treated penta-transgenic mice that over express mutant APP(695) (Swedish (K670N,M671L), Florida ([…]) and London (V717I)) and PS-1 (M146L and L286V) mutations with ICG-001 for 2 months (months 2-4). These mice normally develop massive cerebral deposition of Aβ starting at 6 weeks of age.

[2] = system: bleomycin-induced pulmonary fibrosis; assay: bleomycin-induced lung injury / pulmonary fibrosis; format: in vivo, mouse
Description: The well-characterized model of bleomycin-induced lung injury has been extensively used to investigate potential pathways involved in the pathogenesis of pulmonary fibrosis and to explore therapeutic approaches.

**Q.** O=C1[C@H](Cc2ccc(O)cc2)N2C(=O)CCN(C(=O)NCc3ccccc3)[C@H]2CN1Cc1cccc2ccccc12 [ICG-001] was tested. Which “amyloid plaque formation / Aβ staining” value [1] did it give?
**A.** significant decrease in amyloid plaque formation; also recorded: decrease in Aβ staining

**Q.** And the “bleomycin-induced lacZ expression in airway and alveolar epithelium” value ([2]; BAT-gal transgenic mice)?
**A.** significantly reduced

**Q.** What about the “expression of S100A4/FSP-1” value ([2]; bleomycin model in vivo in the mouse and fibroblasts from IPF patients in vitro) of the same compound?
**A.** significantly decreased the expression of S100A4/FSP-1

**Q.** What about the established fibrosis ([2]; mouse, in vivo) of the same compound?
**A.** could reverse established fibrosis

**Q.** And the “severity of pulmonary fibrosis” value ([2]; pretreatment)?
**A.** significantly reduced the severity of pulmonary fibrosis
